Source: patent publication US20100063112A1, “POLYMORPH III OF 4-[4-(AMINO)-3-FLUOROPHENOXY]-N-METHYLPYRIDINE-2-CARBOXAMIDE” (BAYER SCHERING PHARMA AKTIENGESELLSCHAFT, priority 2006, published 2010)

Assay: solubility in water and in organic solvents
Format: physicochemical

- solubility in organic solvents (organic solvents): high
- solubility in water (water): high
SMILES: CNC(=O)c1cc(Oc2ccc(NC(=O)Nc3ccc(Cl)c(C(F)(F)F)c3)c(F)c2)ccn1 [polymorph III, 4-[4-({[4-chloro-3-(trifluoromethyl)phenyl]carbamoyl}amino)-3-fluorophenoxy]-N-methylpyridine-2-carboxamide in the polymorph III]
